Article PMC8509773, “3-Pyridinylidene Derivatives of Chemically Modified Lupane and Ursane Triterpenes as Promising Anticancer Agents by Targeting Apoptosis” (International Journal of Molecular Sciences, 2021)

What was measured:
Test in all cases: NCI-60 SRB screening (one-dose and five-dose)
Assay type in all cases: cell-based, human
[1] = tested on: HCT-116; conditions: 48 h; for GI50: Homo sapiens, HCT-116, five dose 0.01–100 μM
Procedure: (§1) The compounds were added at a single concentration and the cell cultures were incubated for 48 h. The end point determinations were made with a protein binding dye, sulforhodamine B (SRB). […] The percentage of growth was evaluated spectrophotometrically versus controls not treated with test agents after 48-h exposure and using SRB protein assay to estimate cell viability or growth. […] Furthermore, mean graph midpoints (MG_MID) were calculated for each of the parameters, giving an average activity parameter over all cell lines for the tested compound. For the MG_MID calculation, insensitive cell lines were included with the highest concentration tested.

[2] = tested on: U251; conditions: 48 h; for GI50: Homo sapiens, U-251, U251, five dose 0.01–100 μM
Procedure: as §1

[3] = tested on: SW-620; conditions: 48 h; for GI50: Homo sapiens, SW-620, five dose 0.01–100 μM
Procedure: as §1

[4] = tested on: HOP-62; conditions: 48 h; for GI50: Homo sapiens, HOP-62, five dose 0.01–100 μM
Procedure: as §1

[5] = tested on: MDA-MB-435; conditions: 48 h; for GI50: Homo sapiens, MDA-MB-435, MDA-B-435, five dose 0.01–100 μM
Procedure: as §1

[6] = tested on: NCI/ADR-RES; conditions: 48 h; for GI50: Homo sapiens, five dose 0.01–100 μM
Procedure: as §1

[7] = tested on: BT-549; conditions: 48 h; for GI50: Homo sapiens, BT-549, five dose 0.01–100 μM
Procedure: as §1

[8] = tested on: UACC-257; conditions: 48 h; for GI50: Homo sapiens, UACC-257, five dose 0.01–100 μM
Procedure: as §1

[9] = tested on: 786-0; conditions: 48 h; for GI50: Homo sapiens, 786-0, five dose 0.01–100 μM
Procedure: as §1

[10] = tested on: EKVX; conditions: 48 h; for GI50: Homo sapiens, five dose 0.01–100 μM
Procedure: as §1

[11] = tested on: SK-MEL-5; conditions: 48 h; for GI50: Homo sapiens, SK-MEL-5, five dose 0.01–100 μM
Procedure: as §1

[12] = tested on: COLO 205; conditions: 48 h; for GI50: Homo sapiens, COLO 205, five dose 0.01–100 μM
Procedure: as §1

[13] = tested on: IGROV1; conditions: 48 h; for GI50: Homo sapiens, IGROV-1, IGROV1, five dose 0.01–100 μM
Procedure: as §1

[14] = tested on: K-562; conditions: 48 h; for GI50: Homo sapiens, K562, K-562, five dose 0.01–100 μM
Procedure: as §1

[15] = tested on: OVCAR-5; conditions: 48 h; for GI50: Homo sapiens, OVCAR-5, five dose 0.01–100 μM
Procedure: as §1

[16] = tested on: HOP-92; conditions: 48 h; for GI50: Homo sapiens, HOP-92, five dose 0.01–100 μM
Procedure: as §1

[17] = tested on: SF-295; conditions: 48 h; for GI50: Homo sapiens, SF-295, five dose 0.01–100 μM
Procedure: as §1

[18] = tested on: SF-539; conditions: 48 h; for GI50: Homo sapiens, SF-539, five dose 0.01–100 μM
Procedure: as §1

[19] = tested on: NCI-H522; conditions: 48 h; for GI50: Homo sapiens, NCI-H522, five dose 0.01–100 μM
Procedure: as §1

[20] = tested on: SK-MEL-2; conditions: 48 h; for GI50: Homo sapiens, SK-MEL-2, five dose 0.01–100 μM
Procedure: as §1

[21] = tested on: UO-31; conditions: 48 h; for GI50: Homo sapiens, UO-31, five dose 0.01–100 μM
Procedure: as §1

[22] = tested on: SNB-75; conditions: 48 h; for GI50: Homo sapiens, SNB-75, five dose 0.01–100 μM
Procedure: as §1

[23] = tested on: RPMI-8226; conditions: 48 h; for GI50: Homo sapiens, RPMI-8226, five dose 0.01–100 μM
Procedure: as §1

[24] = tested on: RXF 393; conditions: 48 h; for GI50: Homo sapiens, RXF 393, five dose 0.01–100 μM
Procedure: as §1

[25] = tested on: HCT-15; conditions: 48 h; for GI50: Homo sapiens, HCT-15, five dose 0.01–100 μM
Procedure: as §1

[26] = tested on: T-47D; conditions: 48 h; for GI50: Homo sapiens, T47D, T -47D, five dose 0.01–100 μM
Procedure: as §1

[27] = tested on: A498; conditions: 48 h; for GI50: Homo sapiens, A498, five dose 0.01–100 μM
Procedure: as §1

[28] = tested on: HL-60(TB); conditions: 48 h; for GI50: Homo sapiens, five dose 0.01–100 μM
Procedure: as §1

[29] = tested on: MDA-MB-468; conditions: 48 h; for GI50: Homo sapiens, MDA-MB-468, five dose 0.01–100 μM
Procedure: as §1

[30] = tested on: NCI-H460; conditions: 48 h; for GI50: Homo sapiens, NCI-H460, five dose 0.01–100 μM
Procedure: as §1

[31] = tested on: A549/ATCC; conditions: 48 h; for GI50: Homo sapiens, five dose 0.01–100 μM
Procedure: as §1

[32] = tested on: MDA-MB-231/ATCC; conditions: 48 h; for GI50: Homo sapiens, five dose 0.01–100 μM
Procedure: as §1

[33] = tested on: NCI-H226; conditions: 48 h; for GI50: Homo sapiens, NCI-H226, five dose 0.01–100 μM
Procedure: as §1

[34] = tested on: MCF7; conditions: 48 h; for GI50: Homo sapiens, MCF7, five dose 0.01–100 μM
Procedure: as §1

[35] = tested on: HCC-2998; conditions: 48 h; for GI50: Homo sapiens, HCC-2998, five dose 0.01–100 μM
Procedure: as §1

[36] = tested on: SF-268; conditions: 48 h; for GI50: Homo sapiens, SF-268, five dose 0.01–100 μM
Procedure: as §1

[37] = tested on: SK-OV-3; conditions: 48 h; for GI50: Homo sapiens, SK-OV-3, five dose 0.01–100 μM
Procedure: as §1

[38] = tested on: NCI-H322M; conditions: 48 h
Procedure: as §1

[39] = tested on: LOX IMVI; conditions: Homo sapiens, five dose 0.01–100 μM, 48 h
Procedure: as §1

COC(=O)[C@]12CC[C@@H](C(=O)/C=C/c3cccnc3)[C@@H]1[C@H]1CC[C@@H]3[C@@]4(C)C/C(=C\c5cccnc5)C(=O)C(C)(C)[C@@H]4CC[C@@]3(C)[C@]1(C)CC2 [Compound 7, methyl 2,30-bis-(3-pyridinylidene)-3,20-dioxo-lup-28-oate]
Growth Percent ([1]; HCT-116, 10 μM): −87.45% | GI50 [1]: 200 nM | GI50 [2]: 360 nM | Growth Percent ([2]; U251, 10 μM): −87.90% | GI50 [3]: 300 nM | Growth Percent ([3]; SW-620, 10 μM): −67.32% | Growth Percent ([4]; HOP-62, 10 μM): −85.57% | GI50 [4]: 690 nM | GI50 [5]: 200 nM | Growth Percent ([5]; MDA-MB-435, 10 μM): −69.71% | Growth Percent ([6]; 10 μM): −39.38% | GI50 [6]: 0.43 µM | Growth Percent ([7]; BT-549, 10 μM): −92.12% | GI50 [7]: 220 nM | GI50 [8]: 270 nM | Growth Percent ([8]; UACC-257, 10 μM): −58.90% | Growth Percent ([9]; 786-0, 10 μM): −92.26% | GI50 [9]: 310 nM | Growth Percent ([10]; 10 μM): −76.32% | GI50 [10]: 410 nM | GI50 [11]: 460 nM | Growth Percent ([11]; SK-MEL-5, 10 μM): −98.85% | Growth Percent ([12]; COLO 205, 10 μM): −45.07% | GI50 [12]: 360 nM | GI50 [13]: 270 nM | Growth Percent ([13]; IGROV1, 10 μM): −87.88% | GI50 [14]: 330 nM | Growth Percent ([14]; K-562, 10 μM): −21.61% | GI50 [15]: 410 nM | Growth Percent ([15]; OVCAR-5, 10 μM): −62.74% | Growth Percent ([16]; HOP-92, 10 μM): −79.86% | GI50 [16]: 530 nM | GI50 [17]: 440 nM | Growth Percent ([17]; SF-295, 10 μM): −98.52% | GI50 [18]: 240 nM | Growth Percent ([18]; SF-539, 10 μM): −96.48% | GI50 [19]: 660 nM | Growth Percent ([19]; NCI-H522, 10 μM): −59.72% | GI50 [20]: 470 nM | Growth Percent ([20]; SK-MEL-2, 10 μM): -61.15% | GI50 [21]: 170 nM | Growth Percent ([21]; UO-31, 10 μM): −100.00% | GI50 [22]: 1350 nM | Growth Percent ([22]; SNB-75, 10 μM): −98.68% | GI50 [23]: 240 nM | Growth Percent ([23]; RPMI-8226, 10 μM): −28.73% | GI50 [24]: 270 nM | Growth Percent ([24]; RXF 393, 10 μM): −93.62% | Growth Percent ([25]; HCT-15, 10 μM): −46.22% | GI50 [25]: 0.24 µM | GI50 [26]: 430 nM | Growth Percent ([26]; T-47D, 10 μM): −43.57% | Growth Percent ([27]; A498, 10 μM): −91.17% | GI50 [27]: 180 nM | Growth Percent ([28]; 10 μM): −30.17% | GI50 [28]: 250 nM | GI50 [29]: 270 nM | Growth Percent ([29]; MDA-MB-468, 10 μM): −76.12% | GI50 [30]: 830 nM | Growth Percent ([30]; NCI-H460, 10 μM): −78.43% | Growth Percent ([31]; 10 μM): −9.34% | GI50 [31]: 390 nM | Growth Percent ([32]; 10 μM): −81.32% | GI50 [32]: 470 nM | GI50 [33]: 1480 nM | Growth Percent ([33]; NCI-H226, 10 μM): −44.44% | GI50 [34]: 380 nM | Growth Percent ([34]; MCF7, 10 μM): −54.19% | Growth Percent ([35]; HCC-2998, 10 μM): −55.45% | GI50 [35]: 670 nM | GI50 [36]: 1010 nM | Growth Percent ([36]; SF-268, 10 μM): −80.80% | GI50 [37]: 1430 nM | Growth Percent ([37]; SK-OV-3, 10 μM): −23.10% | Growth Percent ([38]; 10 μM): −80.71% | GI50 ([38]; Homo sapiens, five dose 0.01–100 μM): 1480 nM | GI50 [39]: 210 nM

COc1cccc2c1C(=O)c1c(O)c3c(c(O)c1C2=O)C[C@@](O)(C(=O)CO)C[C@@H]3O[C@H]1C[C@H](N)[C@H](O)[C@H](C)O1 [Doxorubicin, reference compound]
GI50 [1]: 80 nM | GI50 [2]: 40 nM | GI50 [3]: 90 nM | GI50 [4]: 70 nM | GI50 [5]: 250 nM | GI50 [6]: 7.16 µM | GI50 [7]: 230 nM | GI50 [8]: 140 nM | GI50 [9]: 130 nM | GI50 [10]: 410 nM | GI50 [11]: 80 nM | GI50 [12]: 180 nM | GI50 [13]: 170 nM | GI50 [14]: 190 nM | GI50 [15]: 410 nM | GI50 [16]: 100 nM | GI50 [17]: 100 nM | GI50 [18]: 120 nM | GI50 [19]: 30 nM | GI50 [20]: 170 nM | GI50 [21]: 490 nM | GI50 [22]: 70 nM | GI50 [23]: 80 nM | GI50 [24]: 100 nM | GI50 [25]: 6.46 µM | GI50 [26]: 60 nM | GI50 [27]: 100 nM | GI50 [28]: 120 nM | GI50 [29]: 50 nM | GI50 [30]: 20 nM | GI50 [31]: 60 nM | GI50 [32]: 510 nM | GI50 [33]: 50 nM | GI50 [34]: 30 nM | GI50 [35]: 260 nM | GI50 [36]: 100 nM | GI50 [37]: 220 nM | GI50 [39]: 70 nM
